Assay results taken from US9695155B2, “Herbicidal substituted pyrimidinyloxy benzene compounds” (E. I. DU PONT DE NEMOURS AND COMPANY, priority 2013, dated 2017).

How the values were obtained:
large (Lg) crabgrass [1] = test: Test A preemergence; assay type: in vivo, Digitaria sanguinalis
Summary of the method: (§1)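 Injury scores run from 0, no effect, to 100, complete control, judged by eye against untreated plants roughly 10 days after treatment. Chemicals carried a surfactant in a non-phytotoxic solvent and went onto loam–sand soil preemergence or onto one- to two-leaf seedlings postemergence.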

pigweed [2] = test: Test A preemergence; assay type: in vivo, Amaranthus retroflexus
Summary of the method: as §1

barnyardgrass [3] = test: Test A preemergence; assay type: in vivo, Echinochloa crus-galli
Summary of the method: as §1

morningglory [4] = test: Test A postemergence; assay type: in vivo, Ipomoea spp.
Summary of the method: as §1

morningglory [5] = test: Test A preemergence; assay type: in vivo, Ipomoea spp.
Summary of the method: as §1

corn [6] = test: Test A preemergence; assay type: in vivo, Zea mays
Summary of the method: as §1

barnyardgrass [7] = test: Test B flooded paddy test; assay type: in vivo, Echinochloa crus-galli; details: Flood, 250 g ai/ha; 0 to 100 scale where 0 is no effect and 100 is complete control
Summary of the method: (§2)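 Plants at 2-leaf stage; pots flooded to 3 cm above soil and compound applied directly into paddy water, depth held throughout. After 13 to 15 days in greenhouse, visual rating versus controls on 0 (no effect) to 100 (complete control) scale.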

pigweed [8] = test: Test A postemergence; assay type: in vivo, Amaranthus retroflexus
Summary of the method: as §1

rice [9] = test: Test C flooded paddy test; assay type: in vivo, Oryza sativa; details: Flood, scale 0 to 100 (0 no effect, 100 complete control), 13 to 15 days
Summary of the method: (§3)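 Greenhouse pots flooded to 3 cm above soil at time of treatment received compound via the water, which stayed at that level.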

velvetleaf [10] = test: Test A preemergence; assay type: in vivo, Abutilon theophrasti
Summary of the method: as §1

giant foxtail [11] = test: Test A preemergence; assay type: in vivo, Setaria faberii
Summary of the method: as §1

barnyardgrass [12] = test: Test A postemergence; assay type: in vivo, Echinochloa crus-galli
Summary of the method: as §1

large (Lg) crabgrass [13] = test: Test A postemergence; assay type: in vivo, Digitaria sanguinalis
Summary of the method: as §1

wheat [14] = test: Test A preemergence; assay type: in vivo, Triticum aestivum
Summary of the method: as §1

wheat [15] = test: Test A postemergence; assay type: in vivo, Triticum aestivum
Summary of the method: as §1

sedge, umbrella [16] = test: Test C flooded paddy test; assay type: in vivo, Cyperus difformis; details: Flood, scale 0 to 100 (0 no effect, 100 complete control), 13 to 15 days
Summary of the method: as §3

ducksalad = test: Test C flooded paddy test; assay type: in vivo, Heteranthera limosa; details: Flood, scale 0 to 100 (0 no effect, 100 complete control), 13 to 15 days
Summary of the method: as §3

corn [17] = test: Test A postemergence; assay type: in vivo, Zea mays
Summary of the method: as §1

sedge, umbrella [18] = test: Test B flooded paddy test; assay type: in vivo, Cyperus difformis; details: Flood, 250 g ai/ha; 0 to 100 scale where 0 is no effect and 100 is complete control
Summary of the method: as §2

giant foxtail [19] = test: Test A postemergence; assay type: in vivo, Setaria faberii
Summary of the method: as §1

Heteranthera limosa = test: Test B flooded paddy test; assay type: in vivo; details: Flood, 250 g ai/ha; 0 to 100 scale where 0 is no effect and 100 is complete control
Summary of the method: as §2

barnyardgrass [20] = test: Test C flooded paddy test; assay type: in vivo, Echinochloa crus-galli; details: Flood, scale 0 to 100 (0 no effect, 100 complete control), 13 to 15 days
Summary of the method: as §3

velvetleaf [21] = test: Test A postemergence; assay type: in vivo, Abutilon theophrasti
Summary of the method: as §1

rice [22] = test: Test B flooded paddy test; assay type: in vivo, Oryza sativa; details: Flood, 250 g ai/ha; 0 to 100 scale where 0 is no effect and 100 is complete control
Summary of the method: as §2

[23] = 125 g ai/ha, 0 to 100 scale where 0 is no effect and 100 is complete control
[24] = 500 g ai/ha, 0 to 100 scale, 0 no effect, 100 complete control, approx. 10 days
[25] = 500 g ai/ha, 0 to 100 scale, 0 no effect, 100 complete control

## Brc1cnc(Oc2ccccc2-n2cc(Br)cn2)nc1 [Compound 8]
Large (Lg) crabgrass [1]; [23]
  Crabgrass, Large plant response rating: 80
Large (Lg) crabgrass [1]; [24]
  Crabgrass, Large plant response rating: 100
Pigweed [2]; [23]
  Pigweed plant response rating: 90
Pigweed [2]; [24]
  Pigweed plant response rating: 100
Barnyardgrass [3]; [23]
  Barnyardgrass plant response rating: 50
Barnyardgrass [3]; [24]
  Barnyardgrass plant response rating: 90
Morningglory [4]; [23]
  Plant response rating, Morningglory: 70
Morningglory [4]; [25]
  Plant response rating, Morningglory: 100
Morningglory [5]; [23]
  Morningglory plant response rating: 20
Morningglory [5]; [24]
  Morningglory plant response rating: 30
Corn [6]; [23]
  Corn plant response rating: 0
Corn [6]; [24]
  Corn plant response rating: 0
Barnyardgrass [7]
  Plant response rating, Barnyardgrass: 0
Pigweed [8]; [23]
  Plant response rating, Pigweed: 100
Pigweed [8]; [25]
  Plant response rating, Pigweed: 100
Rice [9]; 31 g ai/ha
  Plant response rating, Rice: 0
Rice [9]; 62 g ai/ha
  Plant response rating, Rice: 0
Rice [9]; 125 g ai/ha
  Plant response rating, Rice: 10
Rice [9]; 250 g ai/ha
  Plant response rating, Rice: 10
Velvetleaf [10]; [23]
  Velvetleaf plant response rating: 100
Velvetleaf [10]; [24]
  Velvetleaf plant response rating: 100
Giant foxtail [11]; [23]
  Foxtail, Giant plant response rating: 70
Giant foxtail [11]; [24]
  Foxtail, Giant plant response rating: 100
Barnyardgrass [12]; [23]
  Plant response rating, Barnyardgrass: 30
Barnyardgrass [12]; [25]
  Plant response rating, Barnyardgrass: 90
Large (Lg) crabgrass [13]; [23]
  Plant response rating, Crabgrass, Large: 50
Large (Lg) crabgrass [13]; [25]
  Plant response rating, Crabgrass, Large: 90
Wheat [14]; [23]
  Wheat plant response rating: 0
Wheat [14]; [24]
  Wheat plant response rating: 0
Wheat [15]; [23]
  Plant response rating, Wheat: 0
Wheat [15]; [25]
  Plant response rating, Wheat: 20
sedge, umbrella [16]; 31 g ai/ha
  Plant response rating, Sedge, Umbrella: 0
sedge, umbrella [16]; 62 g ai/ha
  Plant response rating, Sedge, Umbrella: 50
sedge, umbrella [16]; 125 g ai/ha
  Plant response rating, Sedge, Umbrella: 75
sedge, umbrella [16]; 250 g ai/ha
  Plant response rating, Sedge, Umbrella: 85
ducksalad; 31 g ai/ha
  Plant response rating, Ducksalad: 0
ducksalad; 62 g ai/ha
  Plant response rating, Ducksalad: 40
ducksalad; 125 g ai/ha
  Plant response rating, Ducksalad: 50
ducksalad; 250 g ai/ha
  Plant response rating, Ducksalad: 70
Corn [17]; [23]
  Plant response rating, Corn: 0
Corn [17]; [25]
  Plant response rating, Corn: 30
sedge, umbrella [18]
  Plant response rating, Sedge, Umbrella: 80
Giant foxtail [19]; [23]
  Plant response rating, Foxtail, Giant: 50
Giant foxtail [19]; [25]
  Plant response rating, Foxtail, Giant: 90
Heteranthera limosa
  Plant response rating, Ducksalad: 100
Barnyardgrass [20]; 31 g ai/ha
  Plant response rating, Barnyardgrass: 0
Barnyardgrass [20]; 62 g ai/ha
  Plant response rating, Barnyardgrass: 0
Barnyardgrass [20]; 125 g ai/ha
  Plant response rating, Barnyardgrass: 0
Barnyardgrass [20]; 250 g ai/ha
  Plant response rating, Barnyardgrass: 0
Velvetleaf [21]; [23]
  Plant response rating, Velvetleaf: 100
Velvetleaf [21]; [25]
  Plant response rating, Velvetleaf: 100
Rice [22]
  Plant response rating, Rice: 30

## Cc1ccc(Oc2ncc(Cl)cn2)c(-n2cc(Br)cn2)c1 [Compound 40]
Large (Lg) crabgrass [1]; [23]
  Plant response rating, Crabgrass, Large: 60
Large (Lg) crabgrass [1]; [24]
  Crabgrass, Large plant response rating: 80
Pigweed [2]; [23]
  Plant response rating, Pigweed: 0
Pigweed [2]; [24]
  Pigweed plant response rating: 50
Barnyardgrass [3]; [23]
  Plant response rating, Barnyardgrass: 40
Barnyardgrass [3]; [24]
  Barnyardgrass plant response rating: 50
Morningglory [4]; [23]
  Plant response rating, Morningglory: 70
Morningglory [4]; [25]
  Plant response rating, Morningglory: 100
Morningglory [5]; [23]
  Plant response rating, Morningglory: 0
Morningglory [5]; [24]
  Morningglory plant response rating: 0
Corn [6]; [23]
  Plant response rating, Corn: 0
Corn [6]; [24]
  Corn plant response rating: 0
Barnyardgrass [7]
  Plant response rating, Barnyardgrass: 20
Pigweed [8]; [23]
  Plant response rating, Pigweed: 40
Pigweed [8]; [25]
  Plant response rating, Pigweed: 60
Rice [9]; 31 g ai/ha
  Plant response rating, Rice: 0
Rice [9]; 62 g ai/ha
  Plant response rating, Rice: 0
Rice [9]; 125 g ai/ha
  Plant response rating, Rice: 0
Rice [9]; 250 g ai/ha
  Plant response rating, Rice: 0
Velvetleaf [10]; [23]
  Plant response rating, Velvetleaf: 50
Velvetleaf [10]; [24]
  Velvetleaf plant response rating: 70
Giant foxtail [11]; [23]
  Plant response rating, Foxtail, Giant: 10
Giant foxtail [11]; [24]
  Foxtail, Giant plant response rating: 60
Barnyardgrass [12]; [23]
  Plant response rating, Barnyardgrass: 0
Barnyardgrass [12]; [25]
  Plant response rating, Barnyardgrass: 20
Large (Lg) crabgrass [13]; [23]
  Plant response rating, Crabgrass, Large: 50
Large (Lg) crabgrass [13]; [25]
  Plant response rating, Crabgrass, Large: 70
Wheat [14]; [23]
  Plant response rating, Wheat: 0
Wheat [14]; [24]
  Wheat plant response rating: 0
Wheat [15]; [23]
  Plant response rating, Wheat: 0
Wheat [15]; [25]
  Plant response rating, Wheat: 0
sedge, umbrella [16]; 31 g ai/ha
  Plant response rating, Sedge, Umbrella: 50
sedge, umbrella [16]; 62 g ai/ha
  Plant response rating, Sedge, Umbrella: 75
sedge, umbrella [16]; 125 g ai/ha
  Plant response rating, Sedge, Umbrella: 75
sedge, umbrella [16]; 250 g ai/ha
  Plant response rating, Sedge, Umbrella: 75
ducksalad; 31 g ai/ha
  Plant response rating, Ducksalad: 0
ducksalad; 62 g ai/ha
  Plant response rating, Ducksalad: 0
ducksalad; 125 g ai/ha
  Plant response rating, Ducksalad: 40
ducksalad; 250 g ai/ha
  Plant response rating, Ducksalad: 60
Corn [17]; [23]
  Plant response rating, Corn: 0
Corn [17]; [25]
  Plant response rating, Corn: 0
sedge, umbrella [18]
  Plant response rating, Sedge, Umbrella: 80
Giant foxtail [19]; [23]
  Plant response rating, Foxtail, Giant: 10
Giant foxtail [19]; [25]
  Plant response rating, Foxtail, Giant: 60
Heteranthera limosa
  Plant response rating, Ducksalad: 80
Barnyardgrass [20]; 31 g ai/ha
  Plant response rating, Barnyardgrass: 0
Barnyardgrass [20]; 62 g ai/ha
  Plant response rating, Barnyardgrass: 0
Barnyardgrass [20]; 125 g ai/ha
  Plant response rating, Barnyardgrass: 15
Barnyardgrass [20]; 250 g ai/ha
  Plant response rating, Barnyardgrass: 15
Velvetleaf [21]; [23]
  Plant response rating, Velvetleaf: 100
Velvetleaf [21]; [25]
  Plant response rating, Velvetleaf: 100
Rice [22]
  Plant response rating, Rice: 15
